The values that follow come from BindingDB's records for patent US11149066 (Daiichi Sankyo, 2021).

The Kd is a measure of binding affinity in units of concentration. The low end stands for a tighter complex, the high end for a looser complex.

This experiment addresses Thrombospondin-1 (Homo sapiens, UniProt P07996). The experiment can be described thus: TSP1 inhibitory activity. As to the method: As referred to herein, the TSP1 inhibitory activity refers to the activity to inhibit one or more effects of TSP1, including angiostatic effect. The TSP1 inhibitory activity is measured by a cell adhesion inhibition assay using human TSP1 and vascular endothelial cells as described hereinbelow in the Examples section. In this assay, when the 50% inhibitory concentration (IC5O) of a test substance is 200 nM or less, the test substance is determined to have TSP1 inhibitory activity.

Positions of bridges follow the written chain, without caps; N, C: chain ends. Residues, ends and D or L forms follow the SMILES beside them.

Thrombospondin-1, sequence (P07996 whole entry): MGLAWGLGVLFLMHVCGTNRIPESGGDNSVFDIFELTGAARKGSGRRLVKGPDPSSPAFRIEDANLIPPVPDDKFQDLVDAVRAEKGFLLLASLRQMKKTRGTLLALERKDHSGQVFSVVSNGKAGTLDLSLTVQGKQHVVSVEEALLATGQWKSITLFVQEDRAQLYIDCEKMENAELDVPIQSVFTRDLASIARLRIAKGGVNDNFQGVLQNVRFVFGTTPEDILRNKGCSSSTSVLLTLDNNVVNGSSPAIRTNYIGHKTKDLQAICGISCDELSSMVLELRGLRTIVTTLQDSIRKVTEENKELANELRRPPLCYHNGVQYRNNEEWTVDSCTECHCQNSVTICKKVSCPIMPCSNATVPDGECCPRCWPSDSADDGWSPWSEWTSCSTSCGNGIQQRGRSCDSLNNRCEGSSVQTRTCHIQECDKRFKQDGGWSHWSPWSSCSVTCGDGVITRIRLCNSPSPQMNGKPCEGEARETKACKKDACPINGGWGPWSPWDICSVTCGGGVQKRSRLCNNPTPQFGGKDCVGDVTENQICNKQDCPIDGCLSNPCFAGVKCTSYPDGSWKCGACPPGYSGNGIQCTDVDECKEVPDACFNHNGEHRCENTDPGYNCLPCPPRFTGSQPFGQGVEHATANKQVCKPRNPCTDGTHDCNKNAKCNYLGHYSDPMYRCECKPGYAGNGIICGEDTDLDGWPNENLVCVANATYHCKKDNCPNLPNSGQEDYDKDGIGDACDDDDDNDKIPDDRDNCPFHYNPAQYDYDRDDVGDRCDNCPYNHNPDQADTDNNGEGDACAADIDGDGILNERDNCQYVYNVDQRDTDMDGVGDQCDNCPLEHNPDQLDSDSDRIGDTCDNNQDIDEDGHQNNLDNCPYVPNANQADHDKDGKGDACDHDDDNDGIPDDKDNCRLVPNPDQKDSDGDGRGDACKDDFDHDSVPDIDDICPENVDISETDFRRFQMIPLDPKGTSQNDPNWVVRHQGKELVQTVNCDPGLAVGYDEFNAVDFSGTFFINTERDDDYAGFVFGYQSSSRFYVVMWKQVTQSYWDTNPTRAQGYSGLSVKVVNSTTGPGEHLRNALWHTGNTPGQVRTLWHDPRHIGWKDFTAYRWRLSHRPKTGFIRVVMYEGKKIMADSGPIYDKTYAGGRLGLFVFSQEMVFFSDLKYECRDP

On to `CC[C@H](C)[C@@H]1NC(=O)[C@H](Cc2ccccc2)NC(=O)CSC[C@@H](C(N)=O)NC(=O)[C@H](C(C)C)NC(=O)[C@H](Cc2c[nH]c3ccccc23)NC(=O)[C@H](CCCNC(=N)N)NC(=O)[C@H](C(C)C)NC(=O)[C@H](Cc2c[nH]c3ccccc23)NC(=O)[C@H](CC(N)=O)NC(=O)[C@H](CCCCN)NC(=O)CNC(=O)[C@H](CO)NC1=O` [US11149066, Compound 10] ({CH2CO}-FISGKNWVRWVC-NH2; thioether N-12), for which the Kd was found to be 91 pM.
